Laboratory results taken from patent publication US20080262097A1, “Formulations” (priority 2005, published 2008).
≈ marks a conversion by molar mass, not a printed value. Read-outs that look alike come from different tables or passages of the source.

Experiments:
Format in all cases: cell-based
S. aureus ATCC 12601 [1] = assay: MIC assay; settings: Staphylococcus aureus, ATCC12601
Description: (§1) The staphylococci and enterococci were cultured and maintained on Mueller-Hinton Medium (agar and broth) at pH 7.2; they were incubated aerobically at 37° C. for 24 hours.
(§2) This is a standard international method for quantitatively assessing the antimicrobial activity of a compound in a liquid medium. The method used a 96-well microtitre plate, capable of holding about 200 μl of liquid per well. […] The culture media were as described above for the relevant test organisms.
(§3) The wells were inoculated with a liquid suspension of freshly grown micro-organism and incubated under the conditions described above. After incubation, the microtitre plate was examined visually (with the aid of a light box) for cell pellets in and/or opaque wells, which would indicate microbial growth. The MIC value was recorded as the lowest concentration of test compound required to inhibit microbial growth, ie, the lowest concentration for which the liquid in the well remained clear.
(§4) The assays were conducted in duplicate and included both negative (culture medium only) and positive (culture medium, diluting solvent and inoculum) controls.

S. aureus ATCC 12602 [2] = assay: MIC assay; settings: Staphylococcus aureus, ATCC12602
Description: as §1, §2, §3, §4

S. aureus ATCC 12604 [3] = assay: MIC assay; settings: Staphylococcus aureus, ATCC12604
Description: as §1, §2, §3, §4

S. aureus ATCC 12606 [4] = assay: MIC assay; settings: Staphylococcus aureus, ATCC12606
Description: as §1, §2, §3, §4

S. aureus ATCC 25923 [5] = assay: MIC assay; settings: Staphylococcus aureus, ATCC25923
Description: as §1, §2, §3, §4

S. aureus CPHL EMRSA 17 [6] = assay: MIC assay; settings: Staphylococcus aureus
Description: as §1, §2, §3, §4

[7] = tested on: S. aureus CPHL GISA HO41340156; assay: MIC assay; settings: Staphylococcus aureus
Description: as §1, §2, §3, §4

S. aureus CPHL VISA Mu3 = assay: MIC assay; settings: Staphylococcus aureus
Description: as §1, §2, §3, §4

[8] = tested on: S. epidermidis (NCTC 11047); assay: MIC assay; settings: Staphylococcus epidermidis, NCTC11047
Description: as §1, §2, §3, §4

[9] = tested on: S. saprophyticus NCTC 7292; assay: MIC assay; settings: Staphylococcus saprophyticus, NCTC7292
Description: as §1, §2, §3, §4

[10] = tested on: Staphylococcus aureus ATCC 12600; assay: MIC assay; settings: ATCC12600
Description: as §1, §2, §3, §4

[11] = tested on: Staphylococcus capitis ATCC 27840; assay: MIC assay; settings: ATCC27840
Description: as §1, §2, §3, §4

[12] = tested on: Staphylococcus cohnii ATCC 29974; assay: MIC assay; settings: ATCC29974
Description: as §1, §2, §3, §4

[13] = tested on: Staphylococcus haemolyticus ATCC 29970; assay: MIC assay; settings: ATCC29970
Description: as §1, §2, §3, §4

[14] = tested on: Staphylococcus warneri ATCC 27836; assay: MIC assay; settings: ATCC27836
Description: as §1, §2, §3, §4

[15] = tested on: Staphylococcus xylosus ATCC 29971; assay: MIC assay; settings: ATCC29971
Description: as §1, §2, §3, §4

S. aureus ATCC 12600-U = assay: MBC assay; settings: Staphylococcus aureus, ATCC12600
Description: as §1
(§5) This assay, normally carried out after an MIC assay, determines the minimum concentration of a compound that is lethal to the micro-organism being tested.
(§6) These samples were then individually sub-cultured on non-selective agar medium, under the incubation conditions described above. Following incubation they were examined visually for bacterial growth.

S. aureus ATCC 12601 [16] = assay: MBC assay; settings: Staphylococcus aureus, ATCC12601
Description: as §1, §5, §6

S. aureus ATCC 12602 [17] = assay: MBC assay; settings: Staphylococcus aureus, ATCC12602
Description: as §1, §5, §6

S. aureus ATCC 12604 [18] = assay: MBC assay; settings: Staphylococcus aureus, ATCC12604
Description: as §1, §5, §6

S. aureus ATCC 12605 = assay: MBC assay; settings: Staphylococcus aureus, ATCC12605
Description: as §1, §5, §6

S. aureus ATCC 12606 [19] = assay: MBC assay; settings: Staphylococcus aureus, ATCC12606
Description: as §1, §5, §6

S. aureus ATCC 25923 [20] = assay: MBC assay; settings: Staphylococcus aureus, ATCC25923
Description: as §1, §5, §6

S. aureus CPHL EMRSA 17 [21] = assay: MBC assay; settings: Staphylococcus aureus
Description: as §1, §5, §6

[22] = tested on: S. aureus CPHL GISA HO41340156; assay: MBC assay; settings: Staphylococcus aureus
Description: as §1, §5, §6

S. aureus CPHL VISA Mu50 = assay: MBC assay; settings: Staphylococcus aureus
Description: as §1, §5, §6

[23] = tested on: S. epidermidis (NCTC 11047); assay: MBC assay; settings: Staphylococcus epidermidis, NCTC11047
Description: as §1, §5, §6

[24] = tested on: S. saprophyticus NCTC 7292; assay: MBC assay; settings: Staphylococcus saprophyticus, NCTC7292
Description: as §1, §5, §6

[25] = tested on: Staphylococcus aureus ATCC 12600; assay: MBC assay; settings: ATCC12600
Description: as §1, §5, §6

[26] = tested on: Staphylococcus auricularis ATCC 33753; assay: MBC assay; settings: ATCC33753
Description: as §1, §5, §6

[27] = tested on: Staphylococcus capitis ATCC 27840; assay: MBC assay; settings: ATCC27840
Description: as §1, §5, §6

[28] = tested on: Staphylococcus cohnii ATCC 29974; assay: MBC assay; settings: ATCC29974
Description: as §1, §5, §6

[29] = tested on: Staphylococcus haemolyticus ATCC 29970; assay: MBC assay; settings: ATCC29970
Description: as §1, §5, §6

[30] = tested on: Staphylococcus hominis ATCC 27844; assay: MBC assay; settings: ATCC27844
Description: as §1, §5, §6

O=C(OOC(=O)c1ccccc1)c1ccccc1 [benzoyl peroxide]
MIC (S. aureus ATCC 12601 [1]; S. aureus ATCC 12601, read-out: MIC): 250 µg/mL (≈ 1030 µM)
MIC (S. aureus ATCC 12602 [2]): 125 µg/mL (≈ 516 µM)
MIC (S. aureus ATCC 12604 [3]): 125 µg/mL (≈ 516 µM)
MIC (S. aureus ATCC 12606 [4]; S. aureus ATCC 12606, read-out: MIC): 250 µg/mL (≈ 1030 µM)
MIC (S. aureus ATCC 25923 [5]; S. aureus ATCC 25923, read-out: MIC): 250 µg/mL (≈ 1030 µM)
MIC (S. aureus CPHL EMRSA 17 [6]): 125 µg/mL (≈ 516 µM)
MIC [7]: 125 µg/mL (≈ 516 µM)
MIC (S. aureus CPHL VISA Mu3): 125 µg/mL (≈ 516 µM)
MIC ([8]; S. epidermidis NCTC 11047, read-out: MIC): 250 µg/mL (≈ 1030 µM)
MIC ([9]; S. saprophyticus NCTC 7292, read-out: MIC): 250 µg/mL (≈ 1030 µM)
MIC [10]: 125 µg/mL (≈ 516 µM)
MIC ([11]; Staphylococcus capitis ATCC 27840, read-out: MIC): 250 µg/mL (≈ 1030 µM)
MIC [12]: 62.5 µg/mL (≈ 258 µM)
MIC ([13]; Staphylococcus haemolyticus ATCC 29970, read-out: MIC): 250 µg/mL (≈ 1030 µM)
MIC ([14]; Staphylococcus warneri ATCC 27836, read-out: MIC): > 250 µg/mL
MIC ([15]; Staphylococcus xylosus ATCC 29971, read-out: MIC): 250 µg/mL (≈ 1030 µM)
MBC (S. aureus ATCC 12600-U; S. aureus ATCC 12600-U, read-out: MBC): > 250 µg/mL
MBC (S. aureus ATCC 12601 [16]; S. aureus ATCC 12601, read-out: MBC): 250 µg/mL (≈ 1030 µM)
MBC (S. aureus ATCC 12602 [17]): 125 µg/mL (≈ 516 µM)
MBC (S. aureus ATCC 12604 [18]; S. aureus ATCC 12604, read-out: MBC): 250 µg/mL (≈ 1030 µM)
MBC (S. aureus ATCC 12605): 250 µg/mL (≈ 1030 µM)
MBC (S. aureus ATCC 12606 [19]; S. aureus ATCC 12606, read-out: MBC): 250 µg/mL (≈ 1030 µM)
MBC (S. aureus ATCC 25923 [20]; S. aureus ATCC 25923, read-out: MBC): 250 µg/mL (≈ 1030 µM)
MBC (S. aureus CPHL EMRSA 17 [21]): 125 to 250 µg/mL (≈ 516 to 1030 µM)
MBC ([22]; S. aureus CPHL GISA HO41340156 (Van/Tec intermediate), read-out: MBC): 250 µg/mL (≈ 1030 µM)
MBC (S. aureus CPHL VISA Mu50; S. aureus CPHL VISA Mu50 (Van intermediate), read-out: MBC): 250 µg/mL (≈ 1030 µM)
MBC ([23]; S. epidermidis NCTC 11047, read-out: MBC): 250 µg/mL (≈ 1030 µM)
MBC ([24]; S. saprophyticus NCTC 7292, read-out: MBC): > 250 µg/mL
MBC ([25]; Staphylococcus aureus ATCC 12600, read-out: MBC): 250 µg/mL (≈ 1030 µM)
MBC [26]: 62.5 µg/mL (≈ 258 µM)
MBC [27]: 250 µg/mL (≈ 1030 µM)
MBC [28]: 125 µg/mL (≈ 516 µM)
MBC ([29]; Staphylococcus haemolyticus ATCC 29970, read-out: MBC): 250 µg/mL (≈ 1030 µM)
MBC [30]: 250 µg/mL (≈ 1030 µM)

CC(C)(C)c1cc(O)ccc1O [TBHQ, t-butyl hydroquinone]
MIC (S. aureus ATCC 12601 [1]): 7.8 µg/mL (≈ 46.9 µM)
MIC (S. aureus ATCC 12602 [2]): 3.9 µg/mL (≈ 23.5 µM)
MIC (S. aureus ATCC 12604 [3]): 7.8 µg/mL (≈ 46.9 µM)
MIC (S. aureus ATCC 12606 [4]): 7.8 µg/mL (≈ 46.9 µM)
MIC (S. aureus ATCC 25923 [5]): 7.8 µg/mL (≈ 46.9 µM)
MIC (S. aureus CPHL EMRSA 17 [6]): 1.95 µg/mL (≈ 11.7 µM)
MIC [7]: 7.8 µg/mL (≈ 46.9 µM)
MIC (S. aureus CPHL VISA Mu3): 3.9 µg/mL (≈ 23.5 µM)
MIC [8]: 3.9 µg/mL (≈ 23.5 µM)
MIC [9]: 3.9 µg/mL (≈ 23.5 µM)
MIC [10]: 3.9 µg/mL (≈ 23.5 µM)
MIC ([11]; Staphylococcus capitis): 1.95 to 3.9 µg/mL (≈ 11.7 to 23.5 µM)
MIC [12]: 3.9 µg/mL (≈ 23.5 µM)
MIC ([13]; Staphylococcus haemolyticus): 3.9 µg/mL (≈ 23.5 µM)
MIC ([14]; Staphylococcus warneri): 3.9 µg/mL (≈ 23.5 µM)
MIC ([15]; Staphylococcus xylosus): 7.8 µg/mL (≈ 46.9 µM)
MBC (S. aureus ATCC 12600-U): 7.8 µg/mL (≈ 46.9 µM)
MBC (S. aureus ATCC 12601 [16]): 15.6 µg/mL (≈ 93.9 µM)
MBC (S. aureus ATCC 12602 [17]): 7.8 µg/mL (≈ 46.9 µM)
MBC (S. aureus ATCC 12604 [18]): 7.8 µg/mL (≈ 46.9 µM)
MBC (S. aureus ATCC 12605): 3.9 µg/mL (≈ 23.5 µM)
MBC (S. aureus ATCC 12606 [19]): 7.8 µg/mL (≈ 46.9 µM)
MBC (S. aureus ATCC 25923 [20]): 7.8 µg/mL (≈ 46.9 µM)
MBC (S. aureus CPHL EMRSA 17 [21]; S. aureus CPHL EMRSA 17 (resistance Met/β-lactams), read-out: MBC): 3.9 µg/mL (≈ 23.5 µM)
MBC [22]: 15.6 µg/mL (≈ 93.9 µM)
MBC (S. aureus CPHL VISA Mu50; VISA): 7.8 µg/mL (≈ 46.9 µM)
MBC [23]: 7.8 µg/mL (≈ 46.9 µM)
MBC [24]: 7.8 µg/mL (≈ 46.9 µM)
MBC ([25]; Staphylococcus aureus): 7.8 µg/mL (≈ 46.9 µM)
MBC [26]: 1.95 µg/mL (≈ 11.7 µM)
MBC [27]: 3.9 µg/mL (≈ 23.5 µM)
MBC [28]: 7.8 µg/mL (≈ 46.9 µM)
MBC ([29]; Staphylococcus haemolyticus): 7.8 µg/mL (≈ 46.9 µM)
MBC [30]: 3.9 µg/mL (≈ 23.5 µM)
